Measurements from US10112899B2 (ViiV HEALTHCARE UK LIMITED, priority 2014, dated 2018).

The molecules below were run on HIV in the HTLV-1 transformed cell line MT-4 (assay: organism not typed). Settings: MT4, 96 h, MT-4 cells; luciferase/cell titer glo readout after 96 hours; 10 point dose response.
Format: cell-based
Molecule `Cc1c(-c2c(C)c3c(c(C)c2[C@H](OC(C)(C)C)C(=O)O)CN(C(=O)c2cccc4sccc24)C3)cc(F)c2c1CCCO2` (atropisomer, axis not shown; (M)) [Example 151, (S)-2-((M)-2-(benzo[b]thiophene-4-carbonyl)-6-(8-fluoro-5-methylchroman-6-yl)-4,7-dimethylisoindolin-5-yl)-2-(tert-butoxy)acetic acid] has an IC50 of 5 nM.
`Cc1ccc(F)cc1C(=O)N1Cc2c(C)c(-c3cc(F)c4c(c3C)CCCO4)c([C@H](OC(C)(C)C)C(=O)O)c(C)c2C1` [Example 136, (S)-2-(tert-butoxy)-2-((R)-2-(5-fluoro-2-methylbenzoyl)-6-(8-fluoro-5-methylchroman-6-yl)-4,7-dimethylisoindolin-5-yl)acetic acid] showed an IC50 of 2 nM.
For `Cc1ccc(F)cc1C(=O)N1Cc2c(C)c(-c3cc(F)c4c(c3C)CCCO4)c([C@H](OC(C)(C)C)C(=O)O)c(C)c2C1` (atropisomer, axis not shown; (M)) [Example 177, (S)-2-(tert-butoxy)-2-((M)-2-(5-fluoro-2-methylbenzoyl)-6-(8-fluoro-5-methylchroman-6-yl)-4,7-dimethylisoindolin-5-yl)acetic acid], the IC50 was 2 nM.
Work on `Cc1ccc(-c2c(C)c3c(c(C)c2[C@H](OC(C)(C)C)C(=O)O)CN(C(=O)c2ccc(Cl)c(F)c2)C3)cc1` [Example 264, (S)-2-(tert-butoxy)-2-(2-(4-chloro-3-fluorobenzoyl)-4,7-dimethyl-6-(p-tolyl)isoindolin-5-yl)acetic acid] yielded an IC50 of 9 nM.
`Cc1ccc(-c2c(C)c3c(c(C)c2[C@H](OC(C)(C)C)C(=O)O)CN(C(=O)c2ccccn2)C3)cc1` [Example 273, (S)-2-(tert-butoxy)-2-(4,7-dimethyl-2-picolinoyl-6-(p-tolyl)isoindolin-5-yl)acetic acid] was tested, and the IC50 was 4 nM.
`Cc1c2c(c(C)c([C@H](OC(C)(C)C)C(=O)O)c1-c1ccc(Cl)cc1)CN(C(=O)c1cccc3c1OCO3)C2` [Example 308, (S)-2-(2-(benzo[d][1,3]dioxole-4-carbonyl)-6-(4-chlorophenyl)-4,7-dimethylisoindolin-5-yl)-2-(tert-butoxy)acetic acid] showed an IC50 of 4 nM.
In the case of `COc1ccc(C(=O)N2Cc3c(C)c(-c4cc(F)c5c(c4C)CCCO5)c([C@H](OC(C)(C)C)C(=O)O)c(C)c3C2)cc1C` (atropisomer, axis not shown; (M)) [Example 192, (S)-2-(tert-butoxy)-2-((M)-6-(8-fluoro-5-methylchroman-6-yl)-2-(4-methoxy-3-methylbenzoyl)-4,7-dimethylisoindolin-5-yl)acetic acid], the IC50 is reported as 5 nM.
In the case of `Cc1cc(Cl)ccc1-c1c(C)c2c(c(C)c1C(OC(C)(C)C)C(=O)O)CN(C(=O)N1CCC(F)(F)C1)C2` (centres unmarked) [Example 323, 2-(tert-butoxy)-2-(6-(4-chloro-2-methylphenyl)-2-(3,3-difluoropyrrolidine-1-carbonyl)-4,7-dimethylisoindolin-5-yl)acetic acid], the IC50 is reported as 13 nM.
In the case of `Cc1ccc(-c2c(C)c3c(c(C)c2[C@H](OC(C)(C)C)C(=O)O)CN(C(=O)N[C@@H](C)C2CCCCC2)C3)cc1` [Example 99, (S)-2-(tert-butoxy)-2-(2-(((S)-1-cyclohexylethyl)carbamoyl)-4,7-dimethyl-6-(p-tolyl)isoindolin-5-yl)acetic acid], the IC50 is reported as 45 nM.
Work on `COc1ccccc1C(=O)N1Cc2c(C)c(-c3ccc(C)cc3)c([C@H](OC(C)(C)C)C(=O)O)c(C)c2C1` [Example 163, (S)-2-(tert-butoxy)-2-(2-(2-methoxybenzoyl)-4,7-dimethyl-6-(p-tolyl)isoindolin-5-yl)acetic acid] yielded an IC50 of 4 nM.
`Cc1ccc(-c2c(C)c3c(c(C)c2[C@H](OC(C)(C)C)C(=O)O)CN(C(=O)c2cccc4c2OCO4)C3)cc1` [Example 275, (S)-2-(2-(benzo[d][1,3]dioxole-4-carbonyl)-4,7-dimethyl-6-(p-tolyl)isoindolin-5-yl)-2-(tert-butoxy)acetic acid] gave an IC50 of 5 nM.
`Cc1c(Cl)cccc1C(=O)N1Cc2c(C)c(-c3cc(F)c4c(c3C)CCCO4)c([C@H](OC(C)(C)C)C(=O)O)c(C)c2C1` (atropisomer, axis not shown; (M)) [Example 172, (S)-2-(tert-butoxy)-2-((M)-2-(3-chloro-2-methylbenzoyl)-6-(8-fluoro-5-methylchroman-6-yl)-4,7-dimethylisoindolin-5-yl)acetic acid] gave an IC50 of 7 nM.
`Cc1ccc(Cl)cc1C(=O)N1Cc2c(C)c(-c3cc(F)c4c(c3C)CCCO4)c([C@H](OC(C)(C)C)C(=O)O)c(C)c2C1` (atropisomer, axis not shown; (M)) [Example 185, (S)-2-(tert-butoxy)-2-((M)-2-(5-chloro-2-methylbenzoyl)-6-(8-fluoro-5-methylchroman-6-yl)-4,7-dimethylisoindolin-5-yl)acetic acid] showed an IC50 of 4 nM.
`Cc1ccc(-c2c(C)c3c(c(C)c2[C@H](OC(C)(C)C)C(=O)O)CN(C(=O)[C@H]2CCOC2)C3)cc1` [Example 231, (S)-2-(tert-butoxy)-2-(4,7-dimethyl-2-((S)-tetrahydrofuran-3-carbonyl)-6-(p-tolyl)isoindolin-5-yl)acetic acid] gave an IC50 of 37 nM.
With `Cc1c(-c2c(C)c3c(c(C)c2[C@H](OC(C)(C)C)C(=O)O)CN(C(=O)c2cccc4ccoc24)C3)cc(F)c2c1CCCO2` (atropisomer, axis not shown; (M)) [Example 169, (S)-2-((M)-2-(benzofuran-7-carbonyl)-6-(8-fluoro-5-methylchroman-6-yl)-4,7-dimethylisoindolin-5-yl)-2-(tert-butoxy)acetic acid] the IC50 was 2 nM.
Molecule `Cc1ccc(-c2c(C)c3c(c(C)c2[C@H](OC(C)(C)C)C(=O)O)CN(C(=O)N2CCCC(F)(F)C2)C3)cc1` [Example 66, (2S)-2-(tert-butoxy)-2-[2-(3,3-difluoropiperidine-1-carbonyl)-4,7-dimethyl-6-(4-methylphenyl)-2,3-dihydro-1H-isoindol-5-yl]acetic acid] has an IC50 of 6 nM.
With `Cc1c(-c2c(C)c3c(c(C)c2[C@H](OC(C)(C)C)C(=O)O)CN(Cc2cccc4c2OCO4)C3)cc(F)c2c1CCCO2` (atropisomer, axis not shown; (M)) [Example 216, (S)-2-((M)-2-(benzo[d][1,3]dioxol-4-ylmethyl)-6-(8-fluoro-5-methylchroman-6-yl)-4,7-dimethylisoindolin-5-yl)-2-(tert-butoxy)acetic acid] the IC50 was 4 nM.
Molecule `Cc1ccc(-c2c(C)c3c(c(C)c2[C@H](OC(C)(C)C)C(=O)O)CN(C(=O)N2CCCCCCC2)C3)cc1` [Example 65, (2S)-2-[2-(azocane-1-carbonyl)-4,7-dimethyl-6-(4-methylphenyl)-2,3-dihydro-1H-isoindol-5-yl]-2-(tert-butoxy)acetic acid] has an IC50 of 10 nM.
`Cc1c(-c2c(C)c3c(c(C)c2[C@H](OC(C)(C)C)C(=O)O)CN(C(=O)c2ccccn2)C3)cc(F)c2c1CCCO2` (atropisomer, axis not shown; (M)) [Example 184, (S)-2-(tert-butoxy)-2-((M)-6-(8-fluoro-5-methylchroman-6-yl)-4,7-dimethyl-2-picolinoylisoindolin-5-yl)acetic acid] gave an IC50 of 2 nM.
For `Cc1ccc(-c2c(C)c3c(c(C)c2[C@H](OC(C)(C)C)C(=O)O)CN(C(=O)NC(C)(C)C)C3)cc1` [Example 63], the IC50 was 15 nM.
Work on `Cc1ccc(-c2c(C)c3c(c(C)c2[C@H](OC(C)(C)C)C(=O)O)CN(Cc2ccc(F)cc2)C3)cc1` [Example 2, (S)-2-(tert-Butoxy)-2-(2-(4-fluorobenzyl)-4,7-dimethyl-6-(p-tolyl)isoindolin-5-yl)acetic acid] yielded an IC50 of 36 nM.
Work on `Cc1ccc(-c2c(C)c3c(c(C)c2[C@H](OC(C)(C)C)C(=O)O)CN(C(=O)CC(C)(C)C)C3)cc1` [Example 110, (S)-2-(tert-butoxy)-2-(2-(3,3-dimethylbutanoyl)-4,7-dimethyl-6-(p-tolyl)isoindolin-5-yl)acetic acid] yielded an IC50 of 6 nM.
In the case of `Cc1ccc(-c2c(C)c3c(c(C)c2[C@H](OC(C)(C)C)C(=O)O)CN(C(=O)c2ccccc2C(C)(C)C)C3)cc1` [Example 242, (S)-2-(tert-butoxy)-2-(2-(2-(tert-butyl)benzoyl)-4,7-dimethyl-6-(p-tolyl)isoindolin-5-yl)acetic acid], the IC50 is reported as 13 nM.
Work on `Cc1ccc(-c2c(C)c3c(c(C)c2[C@H](OC(C)(C)C)C(=O)O)CN(C(=O)NC2CCCCC2)C3)cc1` [Example 4, (S)-2-(tert-Butoxy)-2-(2-(cyclohexylcarbamoyl)-4,7-dimethyl-6-(p-tolyl)isoindolin-5-yl)acetic acid] yielded an IC50 of 33 nM.
In the case of `Cc1ccc(-c2c(C)c3c(c(C)c2[C@H](OC(C)(C)C)C(=O)O)CN(Cc2nc(C)c[nH]2)C3)cc1` [Example 23, (S)-2-(tert-butoxy)-2-(4,7-dimethyl-2-((4-methyl-1H-imidazol-2-yl)methyl)-6-(p-tolyl)isoindolin-5-yl)acetic acid], the IC50 is reported as 203 nM.
Work on `Cc1c(-c2c(C)c3c(c(C)c2[C@H](OC(C)(C)C)C(=O)O)CN(C(=O)c2cc(F)c(F)c(F)c2)C3)cc(F)c2c1CCCO2` (atropisomer, axis not shown; (M)) [Example 173, (S)-2-(tert-butoxy)-2-((M)-6-(8-fluoro-5-methylchroman-6-yl)-4,7-dimethyl-2-(3,4,5-trifluorobenzoyl)isoindolin-5-yl)acetic acid] yielded an IC50 of 3 nM.
`Cc1ccc(-c2c(C)c3c(c(C)c2[C@H](OC(C)(C)C)C(=O)O)CN(C(=O)N2CCN4CCC[C@@H]4C2)C3)cc1` [Example 80, (2S)-2-{2-[(8aR)-octahydropyrrolo[1,2-a]piperazine-2-carbonyl]-4,7-dimethyl-6-(4-methylphenyl)-2,3-dihydro-1H-isoindol-5-yl}-2-(tert-butoxy)acetic acid] showed an IC50 of 381 nM.
Work on `Cc1ccc(-c2c(C)c3c(c(C)c2[C@H](OC(C)(C)C)C(=O)O)CN(C(=O)N2CCOCC2)C3)cc1` [Example 57, (2S)-2-(tert-butoxy)-2-[4,7-dimethyl-6-(4-methylphenyl)-2-(morpholine-4-carbonyl)-2,3-dihydro-1H-isoindol-5-yl]acetic acid] yielded an IC50 of 44 nM.
`COc1ccc(F)c(C(=O)N2Cc3c(C)c(-c4cc(F)c5c(c4C)CCCO5)c([C@H](OC(C)(C)C)C(=O)O)c(C)c3C2)c1` (atropisomer, axis not shown; (M)) [Example 179, (S)-2-(tert-butoxy)-2-((M)-2-(2-fluoro-5-methoxybenzoyl)-6-(8-fluoro-5-methylchroman-6-yl)-4,7-dimethylisoindolin-5-yl)acetic acid] showed an IC50 of 4 nM.
